Measurements as given in publication PMC12040169 (PLOS Biology, 2025).

Experiment: in vitro
Details: human, hela cells

Row | Structure (SMILES) | viability at 28.5 h, 10 µM [%]
1 | CNC(=O)Oc1cccc2cccnc12 [CBK015609] | 88.5

Same assay, conditions: human, hela cells, % viability

Row | Structure (SMILES) | viability at 28.5 h, 10 µM [%]
2 | CNS(=O)(=O)c1ccc2c(c1)CCN2C(=O)C1C2CCCCC21 (stereo not drawn) [CBK281521] | 100
3 | O=C1Nc2ccc(-c3ccccc3F)cc2C(=O)N2CCN(C(=O)c3cccnc3)C[C@H]12 [CBK289591] | 111
4 | CCOC(=O)c1csc(COc2ccccc2Cl)n1 [CBK057782] | 113
5 | CN(C)C(=O)c1ccc(-c2ccc3c(c2)OC(C2CCN(C(=O)OCc4ccccc4)CC2)OC3)cc1 (stereo not drawn) [CBK144649] | 85.5
6 | CC(=O)NC1=NC(=O)CN1C [CBK020181] | 107
7 | O=S(=O)(NCCn1c(-c2ccncc2)nc2ccccc21)c1ccccc1 [CBK288578] | 87.2
8 | Cc1sc2ncn(CCC(=O)O)c(=O)c2c1C [CBK288191] | 115
9 | Cc1cc(F)ccc1OC1(C(=O)O)CCN(Cc2ccoc2)CC1 [CBK307187] | 104
10 | O[C@@H]1C[C@@H](c2nc(-c3ccc(F)cc3)no2)N(Cc2ncc[nH]2)C1 [CBK288849] | 121
11 | CC1CCN(S(=O)(=O)N2CCCC2c2cccc(F)c2)CC1 (stereo not drawn) [CBK281957] | 93.2
12 | Cc1cc(C2(C(F)(F)F)C=C3c4ccccc4CC(C)(C)N3C2=O)cc(C)c1O (stereo not drawn) [CBK017463] | 99.2
13 | Cc1n[nH]c2nc(-c3cc(Br)ccc3O)cc(C(=O)O)c12 [CBK286834] | 105
14 | Cc1cc(C)c2c(OCC(=O)Nc3nc(C(N)=O)cs3)nn(C)c2n1 [CBK305530] | 83.9
15 | O=C(NCCN1CCOCC1)C1CCN(Cc2ccccc2O)CC1 [CBK264324] | 101
16 | Cc1cnc2c(N3CCCC3)nc(Cl)cn12 [CBK092250] | 104
17 | O=C(c1cc2cc(Cl)ccc2[nH]1)N1CCN(c2ccccn2)CC1 [CBK107343] | 93.7
18 | O=c1[nH]cc([C@@H]2O[C@H](CO)[C@H](O)C2O)c(=O)[nH]1 (stereo partly drawn) [CBK201172] | 103
19 | COc1ccc(C2CCN(CC(=O)NC3CCCC3)CC2)cc1 [CBK283565] | 98
20 | Cc1ccn2cc(-c3ccc4c(c3)CCN4S(C)(=O)=O)cc2c1 [CBK285252] | 83.8
21 | CC(=O)NCCC(=O)Nc1cc(C)ccc1C [CBK306115] | 96.6
22 | O=C(NCCN1CCC(O)(c2ccc(F)cc2)CC1)C1CCCCC1 [CBK283165] | 106
23 | COc1cccc(C(NC(=O)C2CCN(C(=O)c3ccccc3)CC2)c2ccccn2)c1 (stereo not drawn) [CBK060036] | 103

Row | Structure (SMILES) | viability at 28.5 h, 10 µM [%]
24 | O=C(NCCCN1CCOCC1)c1cc(Cl)ccc1[N+](=O)[O-] [CBK265470] | 108
25 | COc1ccc(CNC(=O)c2cc(S(=O)(=O)N3CCCC3)cs2)cc1 [CBK307576] | 93.6
26 | Cc1ccc(CCC(=O)Nc2ccc(S(N)(=O)=O)cc2)o1 [CBK269031] | 99.9
27 | NC(=O)COc1ccccc1OCC(N)=O [CBK261032] | 87.5
28 | Nc1c(Cl)cc(NC(=O)CCCC(=O)O)cc1Cl [CBK263957] | 91
29 | O=C(Nc1nc(-c2cccs2)cs1)c1ccc(F)cc1 [CBK287327] | 86.7
30 | O=C(Cc1c[nH]c2ccccc12)Nc1ccccc1N1CCNCC1 [CBK028288T] | 98.1
31 | CCC(C)(C)c1ccc(S(=O)(=O)Nc2ccc3ncsc3c2)cc1 [CBK043490] | 113
32 | COc1ccc(-c2nc3cc(OC)ccc3[nH]2)cc1 [CBK000126] | 90.5
33 | Cc1cc(C(=O)NCc2ccc(-c3csnn3)cc2)n[nH]1 [CBK149314] | 88.8
34 | COc1ccc(C(NC(=O)CSCc2cccc(C(=O)O)c2)c2ccc(OC)cc2)cc1 [CBK296680] | 97.6
35 | O=C(O)Cn1nnc(-c2ccc(OCc3cccc(C(F)(F)F)c3)cc2)n1 [CBK267034] | 97.7
36 | Cc1cccc(NC2=NC(=O)/C(=C\c3ccc(Cl)cc3)S2)c1C [CBK263619] | 101
37 | CCC(Oc1ccc(C)cc1)C(=O)Nc1ccccc1C(=O)N1CCOCC1 (stereo not drawn) [CBK270132] | 85.6
38 | CNc1nc2ccccc2n1CC(=O)c1ccccc1 [CBK262251B] | 96
39 | CCCn1c(C)c(C)n2c3c(=O)n(CCC(=O)OC)c(=O)n(C)c3nc12 [CBK306048] | 98.4
40 | CCc1ccc(C(O)CNC2CCN(c3nccs3)CC2)cc1 (stereo not drawn) [CBK304215] | 94.3
41 | CCOc1cc(/C=N\NC(=O)CNc2ccccc2C)cc(Br)c1O [CBK262151] | 86.5
42 | CCCc1ccc(S(=O)(=O)n2ccn(-c3ccc(Oc4ccccc4)cc3)c2=O)cc1 [CBK106648] | 107
43 | O=C(Nc1ccc(NC(=O)c2cc3ccccc3o2)cc1)c1ccc(-c2cccc([N+](=O)[O-])c2)o1 [CBK268579] | 86.8
44 | CC(=O)Oc1ccc(NC(=O)CC2Nc3cc(C)c(C)cc3NC2=O)cc1 (stereo not drawn) [CBK263088] | 89.5
45 | COc1cc(Nc2nc(-c3cccc(NC(C)=O)c3)cn3ccnc23)cc(OC)c1OC [CBK038093] | 99.7

Row | Structure (SMILES) | viability at 28.5 h, 10 µM [%]
46 | Cc1nc2sccn2c1CN1CCCC(C(=O)N2CCOCC2)C1 (stereo not drawn) [CBK305390] | 97.6
47 | NC(=S)NNC(=O)Nc1ccccc1 [CBK261595] | 96.6
48 | COc1cc(CCc2cc(O)n3nc(C)c(-c4ccc(Cl)cc4)c3n2)on1 [CBK285681] | 91.3
49 | c1ccc2c(c1)CCN2c1ncnc2c1nc1n2CCCCC1 [CBK291119] | 91.1
50 | O=C1CC(Sc2ccccc2)C(=O)N1c1ccc(Cc2ccc(N3C(=O)CC(Sc4ccccc4)C3=O)cc2)cc1 (stereo not drawn) [CBK263797] | 110
51 | Cc1nc(C2(O)CCCN(C3CCCC3)CC2)sc1COc1ccc(F)c(F)c1 (stereo not drawn) [CBK286259] | 89.7
52 | O=c1nc2n(Cc3ccccc3)c3ccccc3cc-2c(=O)[nH]1 [CBK287958] | 79.8
53 | Cc1onc(-c2ccccc2Cl)c1C(=O)Nc1ccc(CC(=O)O)cc1 [CBK269623] | 89.2
54 | CC(=O)C(CC(=O)O)C1=C(O)CC(C)(C)CC1=O (stereo not drawn) [CBK287127] | 91.5
55 | Cc1ccc(S(=O)(=O)NC2(C(F)(F)F)NC(=O)N(c3ccc(F)c(Cl)c3)C2=O)cc1 (stereo not drawn) [CBK267473] | 97.2
56 | O=[N+]([O-])c1ccc(/C=N/Nc2nnc3c(n2)[nH]c2ccccc23)cc1 [CBK261486] | 97.8
57 | Cc1cc(S(=O)(=O)NCCC#N)c(C)cc1Cl [CBK043680] | 113
58 | COc1ccc(Cl)cc1S(=O)(=O)N(C)CC(=O)O [CBK269919] | 97.1
59 | COc1ccc(-c2nc(NC3CCCCC3)c3ccccc3n2)cc1 [CBK058109] | 95.6
60 | Cc1csc(C(Cc2cccs2)NCC2CCOC2)n1 (stereo not drawn) [CBK285051] | 110
61 | OC(COCc1ccco1)CN1CCc2sccc2C1C1CC1 (stereo not drawn) [CBK305167] | 119
62 | COc1ccc(CNC(=O)N2CCCCC2CO)cc1OC (stereo not drawn) [CBK155981] | 92.8
63 | O=C(O)Cc1sc(NCCN2CCOCC2)nc1-c1ccccc1 [CBK200113T] | 88.7
64 | O=C(CCOc1ccccc1)Nc1cnc(-c2ccc(F)cc2)c(-c2ccco2)n1 [CBK036967] | 93.1
65 | CCOC(NC(=O)Nc1ccc(Br)cc1)(C(F)(F)F)C(F)(F)F [CBK027208] | 91.2
66 | NC(=O)C1(N2CCCCC2)CCN(CC(=O)Nc2ccc(Br)cc2)CC1 [CBK268364] | 86.2
67 | N#CCCN(C(=O)Nc1ccc2c(c1)OCCO2)C1CCCCC1 [CBK156364] | 92.3

Row | Structure (SMILES) | viability at 28.5 h, 10 µM [%]
68 | COc1ccc(CCNS(=O)(=O)c2cccc([N+](=O)[O-])c2)cc1OC [CBK263618] | 89.5
69 | C=CCn1c(Cc2csc(NC(=O)c3ccc(C)cc3)n2)n[nH]c1=S [CBK295292] | 96.4
70 | O=C(CN1C2CCC1CC(O)(c1ccco1)C2)N1CCCCC1 (stereo not drawn) [CBK284093] | 90.3
71 | O=C(Nc1cccc2ncccc12)c1ccnc(N2CCOCC2)c1 [CBK287882] | 102
72 | NS(=O)(=O)c1ccc(NC(=O)CC2SC(=O)NC2=O)cc1 (stereo not drawn) [CBK263855] | 98.9
73 | CC(Oc1cccc(Cl)c1)C(=O)NCc1ccc(S(N)(=O)=O)cc1 (stereo not drawn) [CBK265477] | 97
74 | Brc1ccc(CSc2nc[nH]n2)cc1 [CBK026361] | 85.3
75 | CC(=O)c1sccc1NS(=O)(=O)c1ccccc1 [CBK038384] | 92.5
76 | Cc1ccc(S(=O)(=O)Nc2ccc(C(=O)O)cc2)cc1[N+](=O)[O-] [CBK034055] | 94.8
77 | CCOC(=O)c1cnn(-c2cc(Oc3ccccc3)ncn2)c1N [CBK098284] | 105
78 | O=c1c2c(n3c(S)nnc3n1Cc1ccco1)-c1ccccc1CC21CCCCC1 [CBK265271] | 94.7
79 | c1ccc2c(c1)[nH]c1nc(SCCN3CCCCC3)nnc12 [CBK263249] | 88.7
80 | Sc1nnc(COc2ccccc2)n1/N=C/c1ccccn1 [CBK265279] | 102
81 | CC(=O)c1nnn(-c2ccc(Cl)cc2Cl)c1C [CBK085972] | 86.7
82 | O=C1/C(=C/c2ccc(OCc3cccc([N+](=O)[O-])c3)cc2)SC(=S)N1CCc1ccccc1 [CBK264641] | 92.6
83 | COCCC(=O)NC(Cc1cccs1)c1nccs1 (stereo not drawn) [CBK282180] | 83.3
84 | N#CCCN(Cc1cccnc1)C(=O)Cc1noc2ccccc12 [CBK304001] | 113
85 | CCN1CCc2cc(-c3cncn3CC(=O)NC(C)(C)C)ccc21 [CBK281698] | 94.8
86 | O=C(O)c1ccc(NS(=O)(=O)c2cccs2)cc1O [CBK092145] | 101
87 | Cc1cc(C(=O)NC(Cc2c[nH]c3ccccc23)C(=O)O)c(C)o1 (stereo not drawn) [CBK286560] | 86.5
88 | O=C(Cc1ccc(F)cc1F)Nc1ccc2cc[nH]c2c1 [CBK160044] | 102
89 | CC(C)(C)OC(=O)NC1CCN(C(=O)CCC(=O)O)CC1 [CBK286604] | 95.9

Same assay, conditions: human, hela cells, % viability, bulk resorufin, single well

Row | Structure (SMILES) | viability at 28.5 h, 10 µM [%]
90 | CCOC(=O)N1CCC2(CC1)OCc1ccc(-c3ccc(S(C)(=O)=O)nc3)cc1O2 [CBK174780] | 92
